In ChEMBL document CHEMBL1154809, “Conventional and microwave assisted synthesis of small molecule based biologically active heterocyclic amidine derivatives” (2010):
Active and inactive are the calls of the source.

What was measured:
HepG32 = experiment: Anticancer activity against human […] cells at 10 uM after 48 hrs by sulforhodamine B assay; assay type: functional, cell-based
IMR-32 = experiment: Anticancer activity against human IMR32 cells at 10 uM after 48 hrs by sulforhodamine B assay; assay type: functional, cell-based
DU-145 = experiment: Anticancer activity against human DU145 cells at 10 uM after 48 hrs by sulforhodamine B assay; assay type: functional, cell-based
HOP-62 = experiment: Anticancer activity against human HOP62 cells at 10 uM after 48 hrs by sulforhodamine B assay; assay type: functional, cell-based
HCT-15 = experiment: Anticancer activity against human HCT15 cells at 10 uM after 48 hrs by sulforhodamine B assay; assay type: functional, cell-based
A549 = experiment: Anticancer activity against human A549 cells at 10 uM after 48 hrs by sulforhodamine B assay; assay type: functional, cell-based
Rattus norvegicus = experiment: Antiinflammatory activity against carrageenan-induced paw oedema in Charles Foster albino rat at 50 mg/kg, po administered 30 mins before carrageenan challenge measured after 1 to 3 hrs by water plethysmometer; assay type: functional

Measured: Activity

N/C(=N/CCc1c[nH]cn1)c1ccccn1
26.8%: Rattus norvegicus
inactive: all other assays above

N/C(=N/CCc1c[nH]c2ccccc12)c1cnccn1
23.9%: Rattus norvegicus
inactive: all other assays above

N/C(=N/CCc1c[nH]cn1)c1cnccn1
25.4%: Rattus norvegicus
inactive: all other assays above

N/C(=N/CCCn1ccnc1)c1cnccn1
21.8%: Rattus norvegicus
inactive: all other assays above

N/C(=N/CCc1c[nH]cn1)c1ccncc1
22.1%: Rattus norvegicus
inactive: all other assays above

N/C(=N/CCc1c[nH]c2ccccc12)c1ccncc1
28.2%: Rattus norvegicus
inactive: all other assays above

N/C(=N/Cc1ccco1)c1ccccn1
28.7%: Rattus norvegicus
inactive: all other assays above

N/C(=N/Cc1ccccn1)c1ccncc1
33.8%: Rattus norvegicus
inactive: all other assays above

N/C(=N/Cc1ccncc1)c1cnccn1
32%: Rattus norvegicus
inactive: all other assays above

N/C(=N/CCCn1ccnc1)c1ccccn1
18.8%: Rattus norvegicus
inactive: all other assays above

N/C(=N/Cc1ccccn1)c1cnccn1
0%: Rattus norvegicus
inactive: all other assays above

N/C(=N/CCc1c[nH]c2ccccc12)c1ccccn1
23.6%: Rattus norvegicus
inactive: all other assays above

N/C(=N/CCCn1ccnc1)c1ccncc1
10%: Rattus norvegicus
inactive: all other assays above

CC(C)Cc1ccc(C(C)C(=O)O)cc1 (stereo unspecified) [IBUPROFEN]
39%: Rattus norvegicus
inactive: all other assays above

N/C(=N/Cc1ccncc1)c1ccccn1
28.2%: Rattus norvegicus
inactive: all other assays above

N/C(=N/Cc1ccncc1)c1ccncc1
31%: Rattus norvegicus
inactive: all other assays above

N/C(=N/Cc1ccco1)c1ccncc1
15.2%: Rattus norvegicus
inactive: all other assays above

N/C(=N/Cc1ccco1)c1cnccn1
36.6%: Rattus norvegicus
inactive: all other assays above
